The structures appear in SMILES notation.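 Dose response: 5 concentrations. Exposure: 48 h. Format: 96-well plates. Endpoint: linear interpolation; highest concentration if not reached. At the GI50, growth is halved. TGI denotes the concentration required for complete inhibition of growth.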

Among the test systems are SK-OV-3 ovarian; MDA-MB-231 breast; RXF 393 renal; HOP-92 NSCLC; PC-3 prostate; OVCAR-4 ovarian; SF-268 CNS; NCI-H226 lung; SK-MEL-5 melanoma; HL-60(TB) leukemia.
What all share (experiment): NCI tumour cell line growth inhibition, 48 h

Turning to `Cc1cc(O)c2c3c(ccc2c1)C(=O)c1c(O)cccc1C3=O`, the TGI in the test with SK-OV-3 ovarian is more than 100000 nM; in the test on MDA-MB-231 breast, more than 100000 nM; in the test on RXF 393 renal, more than 100000 nM; with HOP-92 NSCLC it was more than 100000 nM; in the test with PC-3 prostate it was more than 100000 nM; with OVCAR-4 ovarian, 29800 nM. For the same molecule, the TGI with SF-268 CNS was more than 45000 nM; with NCI-H226 lung, more than 100000 nM; in the test with SK-MEL-5 melanoma it was 1400 nM.

For the molecule `CC(C)(C)c1cc(C(=O)O)c2c(c1)C(=O)OC2(c1ccccc1)c1ccccc1C(=O)O` (stereo unspecified), the GI50 in the test on MDA-MB-231 breast, in the test with PC-3 prostate and in the test on SK-MEL-5 melanoma was more than 100000 nM each time. For the same molecule, the TGI in the test with MDA-MB-231 breast, in the test with RXF 393 renal, in the test on HOP-92 NSCLC, with PC-3 prostate, in the test with OVCAR-4 ovarian and in the test with SF-268 CNS was more than 100000 nM each time. In addition, the TGI in the test on HL-60(TB) leukemia, with NCI-H226 lung and in the test on SK-MEL-5 melanoma was more than 100000 nM in each case.

For `Clc1nc(Cl)c2ncn(CCOCCn3cnc4c(Cl)nc(Cl)nc43)c2n1`, the GI50 with SK-OV-3 ovarian is 1440 nM; in the test on MDA-MB-231 breast it was 187 nM; with RXF 393 renal it was 222 nM; in the test with HOP-92 NSCLC it was 200 nM; in the test with PC-3 prostate it was 188 nM; in the test with OVCAR-4 ovarian, 283 nM. The GI50 in the test on SF-268 CNS was 194 nM; with NCI-H226 lung it was 1560 nM; with SK-MEL-5 melanoma, 370 nM. Also, the TGI in the test on SK-OV-3 ovarian was 2770 nM; in the test with MDA-MB-231 breast, 355 nM; with RXF 393 renal it was 474 nM; in the test on HOP-92 NSCLC it was 687 nM; in the test on PC-3 prostate, 365 nM; in the test with OVCAR-4 ovarian, 707 nM. For the same molecule, the TGI with SF-268 CNS came out at 347 nM; with NCI-H226 lung it was 3200 nM; in the test on SK-MEL-5 melanoma, 1380 nM.

Consider `O=C(c1ccco1)c1c(C(F)(F)F)n([O-])c2cc(F)c(F)cc2[n+]1=O`, for which the GI50 in the test with SK-OV-3 ovarian was 346 nM; with MDA-MB-231 breast, 140 nM; in the test on RXF 393 renal, 193 nM; in the test on HOP-92 NSCLC it was 1490 nM; with PC-3 prostate, 147 nM; in the test with SF-268 CNS, 290 nM. For the same molecule, the GI50 with HL-60(TB) leukemia was 400 nM; in the test with NCI-H226 lung, 926 nM; with SK-MEL-5 melanoma it was 256 nM. The TGI was found to be 1110 nM in the test on SK-OV-3 ovarian; 313 nM with MDA-MB-231 breast; 531 nM with RXF 393 renal; 3210 nM in the test with HOP-92 NSCLC; 435 nM with PC-3 prostate; 1090 nM with SF-268 CNS. Besides, the TGI in the test on HL-60(TB) leukemia is 2740 nM; in the test with NCI-H226 lung, 2350 nM; with SK-MEL-5 melanoma, 1230 nM.

`Cc1cc2c(c(=O)o1)C1=S(SC(c3ccccc3)=C1)S2` (stereo unspecified): the TGI in the test with SK-OV-3 ovarian is 52600 nM; with MDA-MB-231 breast, more than 100000 nM; with RXF 393 renal, 50100 nM; with HOP-92 NSCLC, 83000 nM; in the test on PC-3 prostate it was 65100 nM; with OVCAR-4 ovarian, more than 100000 nM. Besides, the TGI in the test with SF-268 CNS and with SK-MEL-5 melanoma was more than 100000 nM in each case.

`COC1=C(OC)[C@]2(OC)c3c(O)c(OC)c4c(c3O[C@@]23O[C@@H](c2ccccc2)CC=C3C1=O)[C@@H](OC)C[C@H](c1ccccc1)O4`: the GI50 in the test with SK-OV-3 ovarian was 1910 nM; with MDA-MB-231 breast, 445 nM; in the test on RXF 393 renal, 1350 nM; with HOP-92 NSCLC it was 1240 nM; in the test with PC-3 prostate, 706 nM; in the test with OVCAR-4 ovarian, 667 nM. The GI50 with SF-268 CNS was 806 nM; in the test with HL-60(TB) leukemia, 530 nM; in the test with SK-MEL-5 melanoma it was 739 nM. The TGI in the test with SK-OV-3 ovarian worked out at 3560 nM; with MDA-MB-231 breast it was 1700 nM; in the test on RXF 393 renal, 3170 nM; with HOP-92 NSCLC, 2550 nM; with PC-3 prostate, 1840 nM; in the test with OVCAR-4 ovarian, 2150 nM. Also, the TGI was determined as 2840 nM in the test on SF-268 CNS, 1400 nM with HL-60(TB) leukemia and 1960 nM in the test on SK-MEL-5 melanoma.

With `CSC1=Nc2c(c(C)c(-c3ccccc3)n2COC(CO)CO)C2=NC(=O)CN12`, the GI50 in the test on SK-OV-3 ovarian, with MDA-MB-231 breast, in the test with RXF 393 renal, in the test with HOP-92 NSCLC, with PC-3 prostate and in the test on OVCAR-4 ovarian was more than 100000 nM throughout. For the same molecule, the GI50 in the test on SF-268 CNS is more than 100000 nM; with NCI-H226 lung, 88200 nM; in the test on SK-MEL-5 melanoma, more than 100000 nM. In addition, the TGI with SK-OV-3 ovarian, in the test on MDA-MB-231 breast, in the test on RXF 393 renal, with HOP-92 NSCLC, in the test on PC-3 prostate and in the test with OVCAR-4 ovarian was more than 100000 nM throughout. The TGI in the test on SF-268 CNS, in the test on NCI-H226 lung and in the test on SK-MEL-5 melanoma was more than 100000 nM each time.

As for `Cc1ccc(S(=O)(=O)NC(=O)OC23COCN2COC3)cc1`, the TGI in the test on SK-OV-3 ovarian, in the test with MDA-MB-231 breast, in the test with RXF 393 renal, in the test with HOP-92 NSCLC, in the test on PC-3 prostate and with OVCAR-4 ovarian was more than 100000 nM in each case. Further, the TGI in the test on SF-268 CNS, with NCI-H226 lung and with SK-MEL-5 melanoma was more than 100000 nM in each case.

On to `C=C1C(=O)O[C@H]2[C@H]1CC/C(COC(=O)NCc1c[nH]c3ccc(F)cc13)=C\CC[C@@]1(C)O[C@@H]21`, for which the GI50 with SK-OV-3 ovarian is 11100 nM; in the test with MDA-MB-231 breast it was 1630 nM; with RXF 393 renal it was 1530 nM; in the test on HOP-92 NSCLC, 1480 nM; in the test on PC-3 prostate, 1480 nM; in the test on OVCAR-4 ovarian it was 1520 nM. The GI50 with SF-268 CNS is 1810 nM; with NCI-H226 lung it was 1740 nM; in the test with SK-MEL-5 melanoma, 1690 nM. For the same molecule, the TGI was 23100 nM with SK-OV-3 ovarian; 3160 nM in the test with MDA-MB-231 breast; 3000 nM in the test on RXF 393 renal; 3040 nM in the test on HOP-92 NSCLC; 3050 nM in the test with PC-3 prostate; 3590 nM in the test on OVCAR-4 ovarian. Besides, the figures for the TGI in the test on SF-268 CNS, with NCI-H226 lung and with SK-MEL-5 melanoma were 3900 nM, 3300 nM and 3110 nM, respectively.

On to `COc1ccc(-c2c3c(N)c4c(nc3nc3c2c(C)nn3-c2ccccc2)CCCC4)cc1`, for which the GI50 was 12100 nM in the test on SK-OV-3 ovarian; 4150 nM in the test on MDA-MB-231 breast; 8480 nM in the test with RXF 393 renal; 2540 nM with PC-3 prostate; 3220 nM in the test with OVCAR-4 ovarian; 5330 nM in the test with SF-268 CNS. The GI50 in the test with HL-60(TB) leukemia was 2120 nM; in the test on NCI-H226 lung, 19600 nM; in the test on SK-MEL-5 melanoma, 1840 nM. In addition, the TGI in the test with SK-OV-3 ovarian was found to be 24600 nM; in the test on MDA-MB-231 breast, 16900 nM; in the test on RXF 393 renal, 26700 nM; with PC-3 prostate it was 10900 nM; in the test with OVCAR-4 ovarian, 16400 nM; with SF-268 CNS, 19400 nM. The TGI in the test on HL-60(TB) leukemia amounted to 4300 nM; in the test with NCI-H226 lung it was 52500 nM; in the test with SK-MEL-5 melanoma, 3850 nM.
